The species named for assay [1] is Rattus norvegicus. Briefly: Inhibition of vasodilating activity was assessed on the epididymal portion of rat vas deferens in the absence of HbO2 in vitro. In kind it is functional, organism-based.
Assay [2] concerns the target T1, Alpha-1D adrenergic receptor (Rattus norvegicus, UniProt P23944).
T1 sequence (P23944 whole entry): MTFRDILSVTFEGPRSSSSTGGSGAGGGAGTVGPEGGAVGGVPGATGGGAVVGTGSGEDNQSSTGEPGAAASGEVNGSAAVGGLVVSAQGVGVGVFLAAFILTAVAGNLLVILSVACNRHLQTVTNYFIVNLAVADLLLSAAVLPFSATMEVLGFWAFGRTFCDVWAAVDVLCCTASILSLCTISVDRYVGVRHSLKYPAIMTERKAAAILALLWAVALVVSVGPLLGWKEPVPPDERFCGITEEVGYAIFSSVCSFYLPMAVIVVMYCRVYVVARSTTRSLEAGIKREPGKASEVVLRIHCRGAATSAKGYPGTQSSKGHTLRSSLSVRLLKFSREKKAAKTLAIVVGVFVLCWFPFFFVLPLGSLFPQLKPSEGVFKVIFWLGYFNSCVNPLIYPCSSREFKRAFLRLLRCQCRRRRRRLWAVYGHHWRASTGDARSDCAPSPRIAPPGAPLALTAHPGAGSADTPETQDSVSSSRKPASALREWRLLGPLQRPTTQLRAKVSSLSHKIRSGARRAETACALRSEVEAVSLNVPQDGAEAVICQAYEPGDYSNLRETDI
Description: Partial affinity towards Alpha-1 adrenergic receptor was assessed on rat aortic strips.

Assay [3] is filed under the species Rattus norvegicus. Briefly: Inhibition of vasodilating activity was assessed on the epididymal portion of rat vas deferens in the presence of HbO2 in vitro. In kind it is functional.
For assay [4], the species on record is Rattus norvegicus. Description: Inhibition of vasodilating activity was assessed on the rat aortic strips in the absence of HbO2 in vitro.
The species named for assay [5] is Rattus norvegicus. Description: Inhibition of vasodilating activity was assessed on the rat aortic strips in the presence of HbO2 in vitro.

SMILES strings stand for the structures.

On to `COc1cc2nc(N3CCC(S(=O)(=O)c4no[n+]([O-])c4-c4ccccc4)CC3)nc(N)c2cc1OC`, for which the IC50 (commonly the midpoint of a concentration-inhibition curve) in the assay filed under Rattus norvegicus [1] came to 52 nM; in the assay filed under Rattus norvegicus [3], 610 nM. Also, the pA2 (as a rule, the negative logarithm of the molar antagonist concentration that doubles the agonist concentration needed for the same response) in assay [2] turned out to be 8.96.
The compound `COc1cc2nc(N3CCN(C(=O)c4no[n+]([O-])c4C(N)=O)CC3)nc(N)c2cc1OC` came in with a pA2 in assay [2] of 8.25. In addition, the midpoint of inhibition in the assay listed under Rattus norvegicus [4], the IC50, lay at 2500 nM.
On to `COc1cc2nc(N3CCC(S(=O)(=O)c4c(-c5ccccc5)no[n+]4[O-])CC3)nc(N)c2cc1OC`, for which the concentration for half-maximal inhibition (IC50) in the assay filed under Rattus norvegicus [1] was determined as 95 nM; in the assay filed under Rattus norvegicus [3], 700 nM. Further, the pA2 in assay [2] is 8.49.
`COc1cc2nc(N3CCC(S(=O)(=O)c4nonc4-c4ccccc4)CC3)nc(N)c2cc1OC` gave a pA2 in assay [2] of 9.17.
The compound `COc1cc2nc(N3CCN(C(=O)c4no[n+]([O-])c4C#N)CC3)nc(N)c2cc1OC` came in with a pA2 in assay [2] of 8.04. The IC50 in the assay filed under Rattus norvegicus [4] was found to be 9.7 nM; in the assay filed under Rattus norvegicus [5], 81 nM.
In assay [2], `COC(=O)c1c(C(=O)N2CCN(c3nc(N)c4cc(OC)c(OC)cc4n3)CC2)no[n+]1[O-]` showed a pA2 of 8.55. Further, half-maximal inhibition in the assay listed under Rattus norvegicus [4] (IC50) was put at 630 nM.

Values taken from ChEMBL document CHEMBL1128669, “The furoxan system as a useful tool for balancing "hybrids" with mixed alpha 1-antagonist and NO-like vasodilator activities” (J Med Chem, 1995).
